Test results published in patent publication US20160262443A1, “USE OF A COMPOSITION CONTAINING 1,3-PROPANEDIOL AS E-LIQUID” (priority 2014, published 2016).
Read-outs that look alike come from different tables or passages of the source.

Tests used:
[1] = assay type: physicochemical; details: for DTA Transformation temperature (exothermic peak, reaction and/or decomposition) / DTA Vaporization temperature (endothermic peak): 25 to 350° C.
Protocol: Thermogravimetric analysis is a thermal analysis method in which the changes of the physical and chemical properties of the materials are measured as a function of the temperature. TGA can yield information on the physical phenomena, such as vaporization or combustion.
Similarly, one can obtain information on chemical phenomena such as dehydration or decomposition. In differential thermal analysis (DTA), the material under study and an inert reference material are exposed to identical thermal cycles. During the analysis, the difference in temperature between the sample and the reference material is recorded. These differences in temperatures monitored versus time relative to the inert reference material provide information on the exothermic or endothermic thermal phenomena undergone by the sample. By integration of the heat flow curve, DTA analysis yields the so-called endothermic enthalpy values when there is energy absorption, or so-called exothermic enthalpy values when energy is released in the form of heat. The endothermic character is connected with a change in the state of the compound (for example, vaporization), while the exothermic character is induced by decomposition reactions or intra- and intermolecular chemical reactions.
The analysis conditions are the following: • test specimen: 50 mg • open crucible under air flow: 100 mL/min • heating ramp: 10° C./min • temperature range: 25 at 350° C. (temperature conditions representative of normal use and of misuse of an electronic cigarette). Between analyses, the apparatus is cleaned by heating at 600° C. under air flow, in order to eliminate any trace of unvaporized residue deposited on the crucible, the arms of the scale, or the walls of the furnace.

[2] = Kinematic viscosity measurement of e-liquid products (Example 6); assay type: physicochemical
Protocol: Then, the kinematic viscosity of products A, B, C and D is measured.

Row | Structure (SMILES) | DTA Transformation temperature (exothermic peak, reaction and/or decomposition) ([1]; air flow, 10° C./min) | DTA Vaporization temperature (endothermic peak) ([1]; air flow, 10° C./min) [°C] | Kinematic viscosity at 20° C. [2] [mPa · s] | DTA residue unvaporized at 250° C. ([1]; air flow, 10° C./min) [%] | DTA Vaporization temperature (endothermic peak) ([1]; air flow, 10° C./min, listed as propylene glycol) [°C] | evaporation temperature lower than that of nicotine ([1]; difference to nicotine) [°C]
1 | OCCCO [1,3-propanediol] | without any thermal decomposition | 189 | 52.6 | – | – | –
2 | OCC(O)CO [Glycerol, glycerol] | – | 260 | – | 27.3 | – | –
3 | CC(O)CO (stereo not drawn) [Propylene glycol, propylene glycol] | without any thermal decomposition | 174 | – | – | 170 | 16
